Test results as given in patent US20240076609A1, “COMPOSITIONS AND METHODS FOR CULTURING AND EXPANDING CELLS” (LIFE TECHNOLOGIES CORPORATION, priority 2017, published 2024).
Where “and” joins values, the source holds several entries; their conditions need not be identical. Identical values can stand only once. Entries after “also recorded” stand apart in the source; their conditions may differ.

Key:
Pan CD3+ T cells = assay: T cell expansion with 2-DG titration (population doublings); assay type: cell-based, human
Protocol: 2-Deoxy-D-Glucose Preparation: 2-Deoxy-D-Glucose (2-DG, 164.16 g/mol) was manufactured by (Acros Organics, cat. no. 111980-250). The 2-DG solution was prepared in sterile filtered water at a stock concentration of 100 mM, then aliquoted in Eppendorf tubes at a final volume of 1 mL in each tube. Cell Culture: T cell isolation: De-identified, frozen apheresis bags from normal donors were obtained from HemaCare Corp. Van Nuys, CA 91406. T cells were negatively isolated from PBMCs with the DYNABEADS® […] Human T Cells kit (Thermo Fisher Scientific, Cat. No. 11344D). T cell activation and expansion: T cells (seeding density 1×10^6 vc/mL) were activated with DYNABEADS® Human T-Expander CD3/CD28 (Thermo Fisher Scientific, Cat. No. 11141D) at a ratio of 3 beads per T cell and cultured in serum-free medium, animal origin free medium. T cells were counted on days 5, 7, 10, and 12 on a Vi-CELL XR analyzer (Beckman Coulter, Indianapolis IN) and fed with or without 2-DG (0.25 mM, 0.5 mM, 1 mM, 2 mM, and 4 mM) and 5% human AB serum to a density of 5×10^5 vc/mL on days 3, 5, and 7 and 1×10^6 vc/mL on day 10. 2-Deoxy-D-Glucose Preparation: 2-Deoxy-D-Glucose (2-DG, 164.16 g/mol) is manufactured by Acros Organics (part of Thermo Fisher Scientific). The 2-DG solution was prepared in sterile filtered water at a stock concentration of 100 mM, then aliquoted in Eppendorf tubes at a final volume of 1 mL in each tube. Cell Culture: T cell isolation: De-identified, frozen apheresis bags from normal donors were obtained from HemaCare. T cells were negatively isolated from PBMCs with the DYNABEADS® […] Human T Cells kit (Thermo Fisher Scientific, Cat. No. 11344D). T cell activation and expansion: T cells (seeding density 1×10^6 vc/mL) were activated with DYNABEADS® Human T-Expander CD3/CD28 (Thermo Fisher Scientific, Cat. No. 11141D) at a ratio of 3 beads per T cell and cultured in serum-free medium, animal origin free medium. T cells were counted on days 5, 7, 10, and 12 on a Vi-CELL XR analyzer (Beckman Coulter, Indianapolis IN) and fed with or without 2-DG (0.25 mM, 0.5 mM, 1 mM, 2 mM, and 4 mM) and 5% human AB serum to a density of 5×10^5 vc/mL on days 3, 5, and 7 and 1×10^6 vc/mL on day 10.

Primary human T cells = assay: Cytokine production upon re-stimulation (35-Plex Luminex) with 2-DG; assay type: cell-based; details: expanded 12 days, multiplexed cytokine assay
Source text: Cytokine Profiles: Primary human T cells from normal donors were negatively isolated from PBMCs with the DYNABEADS® UNTOUCHED™ Human T Cells kit (Thermo Fisher Scientific, Cat. No. 11344D). T cells (seeding density 1×10^6 vc/mL) were activated with DYNABEADS® Human T-Expander CD3/CD28 (Thermo Fisher Scientific, Cat. No. 11141D) at a ratio of 3 beads per T cell and cultured in serum-free and animal origin free medium or control medium X-VIVO™ 15 (Lonza, Cat. No. BE02-054Q) supplemented with 5% human AB serum. T cells were counted on days 5, 7, 10, and 12 on a Vi-CELL XR analyzer (Beckman Coulter, Indianapolis IN) and fed to a density of 5×10^5 vc/mL on days 3, 5, and 7 and to a density of 1×10^6 vc/mL on day 10. DYNABEADS® were magnetically removed from cultures on day 10 and cells were spun to remove conditioned medium and rested overnight in fresh medium. […]
T cells were expanded for 12 days and re-stimulated with DYNABEADS® Human T-Expander CD3/CD28. Cytokine production upon re-stimulation was assessed with Invitrogen Cytokine Human Magnetic 35-Plex Panel for LUMINEX™. […]
T cells were expanded for 12 days and re-stimulated with DYNABEADS® Human T-Expander CD3/CD28. Cytokine production upon re-stimulation was assessed with Invitrogen Cytokine Human Magnetic 35-Plex Panel for LUMINEX™.

SMILES: O=CC[C@@H](O)[C@H](O)[C@H](O)CO [2-DG, 2-Deoxy-D-Glucose]
- Cultured T Cell Population Doublings (Pan CD3+ T cells; 0.25 mM 2-DG, day 5, Table 12): 1.79
- Cultured T Cell Population Doublings (Pan CD3+ T cells; 0.25 mM 2-DG, day 5, single values, Table 31): 1.44 and 1.64 and 1.57
- Cultured T Cell Population Doublings (Pan CD3+ T cells; 0.25 mM 2-DG, day 7, Table 12): 3.67
- Cultured T Cell Population Doublings (Pan CD3+ T cells; 0.25 mM 2-DG, day 7, single values, Table 31): 3.40 and 3.54 and 3.35
- Cultured T Cell Population Doublings (Pan CD3+ T cells; 0.25 mM 2-DG, day 10, Table 12): 6.20
- Cultured T Cell Population Doublings (Pan CD3+ T cells; 0.25 mM 2-DG, day 10, single values, Table 31): 4.85 and 5.70 and 5.81
- Cultured T Cell Population Doublings (Pan CD3+ T cells; 0.25 mM 2-DG, day 12, Table 12): 6.49
- Cultured T Cell Population Doublings (Pan CD3+ T cells; 0.25 mM 2-DG, day 12, single values, Table 31): 5.72 and 6.57 and 6.47
- Cultured T Cell Population Doublings (Pan CD3+ T cells; 0.5 mM 2-DG, day 5, Table 12): 1.81
- Cultured T Cell Population Doublings (Pan CD3+ T cells; 0.5 mM 2-DG, day 5, single values, Table 31): 1.40 and 1.69 and 1.04
- Cultured T Cell Population Doublings (Pan CD3+ T cells; 0.5 mM 2-DG, day 7, Table 12): 4.17
- Cultured T Cell Population Doublings (Pan CD3+ T cells; 0.5 mM 2-DG, day 7, single values, Table 31): 3.95 and 3.32 and 3.33
- Cultured T Cell Population Doublings (Pan CD3+ T cells; 0.5 mM 2-DG, day 10, Table 12): 6.07
- Cultured T Cell Population Doublings (Pan CD3+ T cells; 0.5 mM 2-DG, day 10, single values, Table 31): 5.06 and 6.28 and 6.75
- Cultured T Cell Population Doublings (Pan CD3+ T cells; 0.5 mM 2-DG, day 12, Table 12): 6.16
- Cultured T Cell Population Doublings (Pan CD3+ T cells; 0.5 mM 2-DG, day 12, single values, Table 31): 6.13 and 6.22 and 6.48
- Cultured T Cell Population Doublings (Pan CD3+ T cells; 1 mM 2-DG, day 5, Table 12): 1.15
- Cultured T Cell Population Doublings (Pan CD3+ T cells; 1 mM 2-DG, day 5, Table 25): 2.08
- Cultured T Cell Population Doublings (Pan CD3+ T cells; 1 mM 2-DG, day 7, Table 12): 3.40
- Cultured T Cell Population Doublings (Pan CD3+ T cells; 1 mM 2-DG, day 7, Table 25): 3.87
- Cultured T Cell Population Doublings (Pan CD3+ T cells; 1 mM 2-DG, day 10, Table 12): 4.93
- Cultured T Cell Population Doublings (Pan CD3+ T cells; 1 mM 2-DG, day 10, Table 25): 7.19
- Cultured T Cell Population Doublings (Pan CD3+ T cells; 1 mM 2-DG, day 12, Table 12): 4.60
- Cultured T Cell Population Doublings (Pan CD3+ T cells; 1 mM 2-DG, day 12, Table 25): 7.00
- Cultured T Cell Population Doublings (Pan CD3+ T cells; 2 mM 2-DG, day 5, Table 12): 0.15
- Cultured T Cell Population Doublings (Pan CD3+ T cells; 2 mM 2-DG, day 5, Table 25): 1.87
- Cultured T Cell Population Doublings (Pan CD3+ T cells; 2 mM 2-DG, day 7, Table 12): 1.33
- Cultured T Cell Population Doublings (Pan CD3+ T cells; 2 mM 2-DG, day 7, Table 25): 3.53
- Cultured T Cell Population Doublings (Pan CD3+ T cells; 2 mM 2-DG, day 10, Table 12): 3.29
- Cultured T Cell Population Doublings (Pan CD3+ T cells; 2 mM 2-DG, day 10, Table 25): 7.10
- Cultured T Cell Population Doublings (Pan CD3+ T cells; 2 mM 2-DG, day 12, Table 12): 2.44
- Cultured T Cell Population Doublings (Pan CD3+ T cells; 2 mM 2-DG, day 12, Table 25): 6.90
- population doublings (Pan CD3+ T cells; 4 mM 2-DG): about 6 population doublings
- Cultured T Cell Population Doublings (Pan CD3+ T cells; 4 mM 2-DG, day 5, Table 12): 2.24
- Cultured T Cell Population Doublings (Pan CD3+ T cells; 4 mM 2-DG, day 5, Table 25): 1.92
- Cultured T Cell Population Doublings (Pan CD3+ T cells; 4 mM 2-DG, day 7, Table 12): 3.84
- Cultured T Cell Population Doublings (Pan CD3+ T cells; 4 mM 2-DG, day 7, Table 25): 3.95
- Cultured T Cell Population Doublings (Pan CD3+ T cells; 4 mM 2-DG, day 10, Table 12): 6.78
- Cultured T Cell Population Doublings (Pan CD3+ T cells; 4 mM 2-DG, day 10, Table 25): 7.50
- Cultured T Cell Population Doublings (Pan CD3+ T cells; 4 mM 2-DG, day 12, Table 12): 6.63
- Cultured T Cell Population Doublings (Pan CD3+ T cells; 4 mM 2-DG, day 12, Table 25): 7.35
- expansion compared to control (Pan CD3+ T cells; 2-DG at 0.25 mM and 0.5 mM): expansion comparable to control
- effect of 2-DG supplementation on T cell growth (Pan CD3+ T cells; concentrations tested 0.25-4 mM): does not affect T cell growth even with lower concentrations
- cytokine production / function of the cells upon re-stimulation (Primary human T cells): no change in cytokine production; also recorded: does not alter the function of the cells
